Converted amounts (≈) assume the structure as drawn. “Also recorded” adds a separate entry of the source. Read-outs that look alike come from different tables or passages of the source. Values belong to the compound of their own block, whether it stands above or below them.
Key:
Assay type in all cases: physicochemical
[1] = Form transfer / competitive slurry experiments
Experimental: The resulting mixture was agitated for at least 24 hours at room temperature and 50° C. separately. Upon reaching equilibrium, the saturated supernatant solution was removed and allowed to evaporate slowly in an open vial under nitrogen at room temperature and 50° C., respectively. The solid resulting from the equilibration was filtered and air-dried before analysis.

[2] = Hygroscopicity by dynamic vapor sorption (DVS)
Experimental: Hygroscopicity was determined on a Surface Measurement Systems DVS. Typically a sample size of 2-10 mg was loaded into the DVS instrument sample pan and the sample was analyzed on a DVS automated sorption analyzer at room temperature. […] The relative humidity was then decreased in a similar manner to accomplish a full adsorption/desorption cycle. For selected hydrated forms, the analysis started at 50% RH and increased to 90% RH at 10% RH step. The relative humidity was then decreased in a similar manner to 0% RH followed by increasing to 50% RH.

[3] = Equilibration / slurry experiments of Form A (XRPD)
Experimental: (§1) All of the solid samples generated in the polymorph screen were analyzed by XRPD. XRPD analysis was conducted on a Thermo ARL X'TRA X-ray powder diffractometer using Cu Kα radiation at 1.54 Å. The instrument was equipped with a fine focus X-ray tube. The voltage and amperage of the X-ray generator were set at 45 kV and 40 mA, respectively. The divergence slits were set at 4 mm and 2 mm and the measuring slits were set at 0.5 mm and 0.2 mm. Diffracted radiation was measured using a Peltier-cooled Si (Li) solid-state detector. A theta-two theta continuous scan at 2.40/min (0.5 sec/0.02° step) from 1.5° to 40° 2θ was used. A sintered alumina standard was used to check the peak positions. […] The resulting mixture was agitated for at least 24 hours at room temperature and 50° C. separately. Upon reaching equilibrium, the saturated supernatant solution was removed and allowed to evaporate slowly in an open vial under nitrogen at room temperature and 50° C., respectively. The solid resulting from the equilibration was filtered and air-dried before analysis.

[4] = Evaporation experiments (XRPD); details: evaporation at 50° C.
Experimental: as §1

[5] = Solubility of Form A in selected aqueous and organic solvents (HPLC); details: thermodynamic from solid, read-out: Solubility (mg/mL) (room temperature)
Experimental: Solubility of Form A in selected aqueous and organic solvents was determined by mixing solid with solvents at room temperature. […] Solubility of Form B and Form C in water was also determined by the same HPLC method.

[6] = humidity from about 0% to about 50% RH at about 25° C.
[7] = humidity from about 0% to about 95% RH at about 25° C.
[8] = humidity increased from about 0% to about 80% RH
[9] = humidity increased from about 80% to about 90% RH
[10] = slurry in MeOH/water (1:1), seed None, 1 week

XRPD Result ([1]; slurry in Acetonitrile, seed None, 2 weeks): Form A | XRPD Result ([1]; slurry in EtOH/H2O (1:1), seed Form B, 1 week): Form A | XRPD Result ([1]; slurry in EtOH/H2O (1:1), seed Form C, 1 week): Form A | XRPD Result ([1]; slurry in Ethanol/Water (1:1), seed None, 2 weeks): Form A | XRPD Result ([1]; slurry in H2O, seed Form B, 1 week): Form A | XRPD Result ([1]; slurry in H2O, seed Form C, 7 weeks): Form A + C | XRPD Result ([1]; slurry in H2O, seed None, 2 weeks): Form A | XRPD Result ([1]; slurry in MTBE, seed None, 2 weeks): Form A | XRPD Result ([1]; slurry in MeOH, seed Form B, 1 week): Form A | XRPD Result ([1]; slurry in MeOH, seed Form C, 1 week): Form A | XRPD Result ([1]; slurry in MeOH, seed None, 2 weeks): Form A | Moisture sorption (wt % at 90% RH) [2]: 0.4 wt % | weight gain [2, 6]: about 0.2 % w/w | weight gain [2, 7]: about 0.5 % w/w | mass gain [2, 8]: less than 0.35 % w/w | mass gain [2, 9]: about 0.08 % w/w | XRPD Result 24 hours ([3]; equilibration at room temperature, 2-Propanol): Form A | XRPD Result 24 hours ([3]; equilibration at room temperature, Acetone): Form A | XRPD Result 24 hours ([3]; equilibration at room temperature, Acetonitrile): Form A | XRPD Result 24 hours ([3]; equilibration at room temperature, Ethanol): Form A | XRPD Result 24 hours ([3]; equilibration at room temperature, Ethanol/Water (1:1)): Form A | XRPD Result 24 hours ([3]; equilibration at room temperature, Ethyl acetate): Form A | XRPD Result 24 hours ([3]; equilibration at room temperature, Heptane): Form A | XRPD Result 24 hours ([3]; equilibration at room temperature, Methanol): Form A | XRPD Result 24 hours ([3]; equilibration at room temperature, Methyl ethyl ketone): Form A | XRPD Result 24 hours ([3]; equilibration at room temperature, Methyl t-butyl ether): Form A | XRPD Result 24 hours ([3]; equilibration at room temperature, Methylene chloride): Form A | XRPD Result 24 hours ([3]; equilibration at room temperature, Tetrahydrofuran): Form A | XRPD Result 24 hours ([3]; equilibration at room temperature, Toluene): Form A | XRPD Result 24 hours ([3]; equilibration at room temperature, Water): Form A | XRPD Result 24 hours ([3]; equilibration at room temperature, n-Butanol): Form A | XRPD Result 24 hours ([3]; slurry at 50° C., 2-Propanol): Form A | XRPD Result 24 hours ([3]; slurry at 50° C., Acetone): Form A | XRPD Result 24 hours ([3]; slurry at 50° C., Acetonitrile): Form A | XRPD Result 24 hours ([3]; slurry at 50° C., Ethanol): Form A | XRPD Result 24 hours ([3]; slurry at 50° C., Ethanol/Water (1:1)): Form A | XRPD Result 24 hours ([3]; slurry at 50° C., Ethyl acetate): Form A | XRPD Result 24 hours ([3]; slurry at 50° C., Heptane): Form A | XRPD Result 24 hours ([3]; slurry at 50° C., Methanol): Form A | XRPD Result 24 hours ([3]; slurry at 50° C., Methyl ethyl ketone): Form A | XRPD Result 24 hours ([3]; slurry at 50° C., Tetrahydrofuran): Form A | XRPD Result 24 hours ([3]; slurry at 50° C., Toluene): Form A | XRPD Result 24 hours ([3]; slurry at 50° C., Water): Form A | XRPD Result 24 hours ([3]; slurry at 50° C., n-Butanol): Form A | XRPD Result ([4]; Methanol): Form A + B | XRPD Result ([4]; Tetrahydrofuran): Amorphous, degraded | solubility at 24 h ([5]; 0.1N HCl, simulated gastric fluid): 7.1 mg/mL (≈ 21100 µM) | solubility at 24 h ([5]; 0.9% NaCl, saline or isotonic): 0.03 mg/mL (≈ 89.2 µM) | solubility at 24 h ([5]; acetone, organic solvent or mixture): 0.46 mg/mL (≈ 1370 µM) | solubility at 24 h ([5]; acetonitrile, organic solvent or mixture): 0.14 mg/mL (≈ 416 µM) | solubility at 24 h ([5]; aqueous buffer, Acetate buffer pH 4.0): 0.06 mg/mL (≈ 178 µM) | solubility at 24 h ([5]; aqueous buffer, Phosphate buffer pH 6.8): 0.05 mg/mL (≈ 149 µM) | solubility at 24 h ([5]; ethanol, organic solvent or mixture): 0.5 mg/mL (≈ 1490 µM) | solubility at 24 h ([5]; ethyl acetate, organic solvent or mixture): 0.32 mg/mL (≈ 951 µM) | solubility at 24 h ([5]; heptane, organic solvent or mixture): < 0.005 mg/mL | solubility at 24 h ([5]; isopropanol, organic solvent or mixture): 0.28 mg/mL (≈ 832 µM) | solubility at 24 h ([5]; methanol, organic solvent or mixture): 1.13 mg/mL (≈ 3360 µM) | solubility ([5]; organic solvent or mixture, Dimethyl Sulfoxide, estimated from visual observation of complete dissolution): > 50 mg/mL | solubility at 24 h ([5]; tetrahydrofuran, organic solvent or mixture): 5.5 mg/mL (≈ 16400 µM) | solubility at 24 h ([5]; Water, room temperature, 24 hours): 0.08 mg/mL (≈ 238 µM)
SMILES: CCN1C(=O)CNc2ncc(-c3ccc(-c4nnc[nH]4)nc3C)nc21 [Form A, 1-ethyl-7-(2-methyl-6-(1H-1,2,4-triazol-3-yl)pyridin-3-yl)-3,4-dihydropyrazino[2,3-b]pyrazin-2(1H)-one]
hygroscopicity ([2]; DVS, in words): non-hygroscopic; also recorded: not hygroscopic

XRPD Result ([1]; slurry in H2O, seed None, 1 week): Form C | XRPD Result [1, 10]: Form C | Moisture sorption (wt % at 90% RH) ([2]; listed as C): 12.2 wt %
SMILES: CCN1C(=O)CNc2ncc(-c3ccc(-c4nnc[nH]4)nc3C)nc21 [Form C, 1-ethyl-7-(2-methyl-6-(1H-1,2,4-triazol-3-yl)pyridin-3-yl)-3,4-dihydropyrazino[2,3-b]pyrazin-2(1H)-one]

XRPD Result ([1]; slurry in Acetonitrile, seed None, 3 days): Form A | Moisture sorption (wt % at 90% RH) ([2]; listed as B): 20.7 wt %
SMILES: CCN1C(=O)CNc2ncc(-c3ccc(-c4nnc[nH]4)nc3C)nc21 [Form B, 1-ethyl-7-(2-methyl-6-(1H-1,2,4-triazol-3-yl)pyridin-3-yl)-3,4-dihydropyrazino[2,3-b]pyrazin-2(1H)-one]

XRPD Result ([1]; slurry in Acetonitrile, seed None, 1 week): Form A | XRPD Result [1, 10]: Form C | Moisture sorption (wt % at 90% RH) [2]: 5.9 wt % | weight gain [2, 6]: about 2.3 % w/w | weight gain [2, 7]: about 5.8 % w/w | mass gain [2, 8]: less than 4 % w/w | mass gain [2, 9]: about 1.1 % w/w
SMILES: CCN1C(=O)CNc2ncc(-c3ccc(-c4nnc[nH]4)nc3C)nc21 [Form E, 1-ethyl-7-(2-methyl-6-(1H-1,2,4-triazol-3-yl)pyridin-3-yl)-3,4-dihydropyrazino[2,3-b]pyrazin-2(1H)-one]

Reference: patent US10052322B2 (SIGNAL PHARMACEUTICALS, LLC, priority 2013, dated 2018)
